From ChEMBL document CHEMBL1201862, “PubChem BioAssay data set” (2004)
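Step 1: Grow cells in 96-well plates. Step 2: Expose to compound for 48 hours at 5 concentrations. Step 3: Interpolate endpoints linearly; if unreached, use highest concentration. GI50: concentration for 50% inhibition of growth.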 Calls of active or inactive are those of the source. No stated cut-off is given here; in the data, active = GI50 up to about 1.1 µM and inactive = higher.

What was measured:
Assay in all cases: NCI-60 cell line screen, 48 h
786-0 = test system: 786-0
A498 = test system: A498
DU-145 = test system: DU-145
HCC 2998 = test system: HCC 2998
IGROV-1 = test system: IGROV-1
KM12 = test system: KM12
LOX IMVI = test system: LOX IMVI
NCI-H226 = test system: NCI-H226
NCI-H23 = test system: NCI-H23
NCI-H522 = test system: NCI-H522
OVCAR-8 = test system: OVCAR-8
RPMI-8226 = test system: RPMI-8226
RXF 393 = test system: RXF 393
SF-295 = test system: SF-295
SK-MEL-2 = test system: SK-MEL-2
SK-OV-3 = test system: SK-OV-3
SN12C = test system: SN12C
SNB-75 = test system: SNB-75
SR = test system: SR
UACC-257 = test system: UACC-257

Compound	GI50 (786-0)	GI50 (A498)	GI50 (DU-145)	GI50 (HCC 2998)	GI50 (IGROV-1)	GI50 (KM12)	GI50 (LOX IMVI)	GI50 (NCI-H226)	GI50 (NCI-H23)	GI50 (NCI-H522)	GI50 (OVCAR-8)	GI50 (RPMI-8226)	GI50 (RXF 393)	GI50 (SF-295)	GI50 (SK-MEL-2)	GI50 (SK-OV-3)	GI50 (SN12C)	GI50 (SNB-75)	GI50 (SR)	GI50 (UACC-257)
O=c1c2ccccc2sc2nc(CCl)nn12	12.4 µM (inactive)	2.64 µM (inactive)	7.78 µM (inactive)	13.3 µM (inactive)	17.2 µM (inactive)	> 100 µM (inactive)	> 100 µM (inactive)	> 100 µM (inactive)	7.59 µM (inactive)	44.8 µM (inactive)	> 100 µM (inactive)	> 97.5 µM (inactive)	6.75 µM (inactive)	43.1 µM (inactive)	48.4 µM (inactive)	14.8 µM (inactive)	9.08 µM (inactive)	19.2 µM (inactive)	10.9 µM (inactive)	14 µM (inactive)
CCOC(=O)C(NC(=O)c1cccc(Cl)c1)(N1CCN(c2cc3c(cc2F)c(=O)c(C(=O)O)cn3CC)CC1)C(F)(F)F (stereo unspecified)	14.7 µM (inactive)	20.7 µM (inactive)	25.4 µM (inactive)	12.6 µM (inactive)	18.3 µM (inactive)	11.7 µM (inactive)	17.7 µM (inactive)	18.2 µM (inactive)	18 µM (inactive)	4.17 µM (inactive)	16.6 µM (inactive)	10.9 µM (inactive)	18.2 µM (inactive)	18.7 µM (inactive)	13.5 µM (inactive)	23.9 µM (inactive)	24.4 µM (inactive)	21.4 µM (inactive)	17.1 µM (inactive)	27.4 µM (inactive)
Clc1ccc(-c2nnc(C34CC5CC(CC(C5)C3)C4)o2)cc1	> 100 µM (inactive)	> 100 µM (inactive)	> 100 µM (inactive)	> 100 µM (inactive)	> 100 µM (inactive)		> 100 µM (inactive)	> 100 µM (inactive)	> 100 µM (inactive)	> 100 µM (inactive)	> 100 µM (inactive)	> 100 µM (inactive)	> 100 µM (inactive)	> 100 µM (inactive)	> 100 µM (inactive)	> 100 µM (inactive)	> 100 µM (inactive)	> 100 µM (inactive)	> 100 µM (inactive)	> 100 µM (inactive)
C[C@@H](c1ccccc1)C(CC#N)[C@H]1CCC[C@]1(O)C#Cc1ccc2c(c1)OCO2 (stereo partly specified)	17.5 µM (inactive)	19.8 µM (inactive)	16.8 µM (inactive)	16.3 µM (inactive)	14.3 µM (inactive)	16.7 µM (inactive)	18.5 µM (inactive)	17.5 µM (inactive)	17.7 µM (inactive)	15.3 µM (inactive)	16.9 µM (inactive)	23.2 µM (inactive)	14.4 µM (inactive)	18.1 µM (inactive)	17.6 µM (inactive)	18.1 µM (inactive)		16.5 µM (inactive)	19.7 µM (inactive)	18.2 µM (inactive)
CCC(=O)NC(Nc1cccc(F)c1C)(C(F)(F)F)C(F)(F)F	> 100 µM (inactive)	> 100 µM (inactive)	> 100 µM (inactive)	> 100 µM (inactive)	> 100 µM (inactive)	> 100 µM (inactive)	> 100 µM (inactive)	> 100 µM (inactive)	> 100 µM (inactive)	> 100 µM (inactive)	> 100 µM (inactive)	> 100 µM (inactive)	3.88 µM (inactive)	> 100 µM (inactive)	> 100 µM (inactive)	> 100 µM (inactive)		> 100 µM (inactive)	75.3 µM (inactive)	> 100 µM (inactive)
CCCC[C@@H](C)/C=C1\CN2CCC[C@H]2[C@@](C)(O)[C@@H]1O	45.2 µM (inactive)	> 100 µM (inactive)	17.3 µM (inactive)	71.3 µM (inactive)	51.6 µM (inactive)	> 100 µM (inactive)	22.8 µM (inactive)	> 100 µM (inactive)	32.9 µM (inactive)	56.1 µM (inactive)	65.5 µM (inactive)	> 100 µM (inactive)	0.0292 µM (active)	55.7 µM (inactive)	> 100 µM (inactive)	73.3 µM (inactive)		20.2 µM (inactive)	9.2 µM (inactive)	> 100 µM (inactive)
